Test [1] in a line: Inhibition of GPAT at 40 ug/ml.
A short description of test [2]: Inhibition of GPAT.

pIC50: −log10 of the molar value.

By inhibition is commonly meant the change of the read-out against control, counted positive when it falls. A higher inhibition goes with a response far below the control. The pIC50 is the IC50 on a negative log10 scale, so that one unit is a factor of ten. Low values mean a high IC50, high ones a low IC50. As to `CCCCCCCCCS(=O)(=O)Nc1ccccc1C(=O)O`, the inhibition in test [1] was determined as 97%. Besides, the pIC50 in test [2] is 4.61. Taken in the same sequence, the figures for `CCCCCCCCS(=O)(=O)N[C@@H]1CC[C@H](C(=O)O)[C@H]1O` (racemic) were 25% and 3.59.

For `CCCCCCCCS(=O)(=O)N[C@H]1CCC[C@H](C(=O)O)[C@H]1O` (racemic), the inhibition in test [1] worked out at 36%. This compound also had a pIC50 in test [2] of 3.79. Taken in the same sequence, the figures for `CCCCCCCCS(=O)(=O)N[C@H]1CC[C@H](C(=O)O)[C@@H]1O` (racemic) were 3% and 3.49. `CCCCCCCCS(=O)(=O)N[C@H]1CC[C@H](CC(=O)O)[C@H]1O` (racemic) showed an inhibition in test [1] of 8%. Besides, the pIC50 in test [2] was 3.53. In test [1], `CCCCCCCCS(=O)(=O)N[C@@H]1CCC[C@H](C(=O)O)[C@H]1O` (racemic) gave an inhibition of 17%. Same read-out and setting: the result for `CCCCCCCCS(=O)(=O)N[C@@H]1CCC[C@H](CC(=O)O)[C@H]1O` (racemic) reads 17%; that for `CCCCCCCCS(=O)(=O)N[C@@H]1CC[C@H](CC(=O)O)[C@H]1O` (racemic), 16%; that for `CCCCCCCCS(=O)(=O)N[C@@H]1[C@@H](O)CC[C@H]1C(=O)O` (racemic), 12%.

Consider `CCCCCCCCS(=O)(=O)N[C@H]1CCC[C@H](C(=O)O)[C@@H]1O` (racemic), for which the inhibition in test [1] is 15%.

On to `CCCCCCCCS(=O)(=O)N[C@H]1CCC[C@H](CC(=O)O)[C@@H]1O` (racemic), for which, in test [1], the inhibition was 23%. Same read-out and setting: the result for `CCCCCCCCS(=O)(=O)N[C@H]1CCC[C@H](CC(=O)O)[C@H]1O` (racemic) reads 2%; that for `CCCCCCCCS(=O)(=O)N[C@H]1CC[C@H](C(=O)O)[C@H]1O` (racemic), 19%.

In the case of `CCCCCCCCS(=O)(=O)N[C@H]1CC[C@H](CC(=O)O)[C@@H]1O` (racemic), the inhibition in test [1] was determined as 8%. The same measure, in the same setting: the result for `CCCCCCCCS(=O)(=O)N[C@H]1[C@H](O)CC[C@H]1C(=O)O` (racemic) reads 15%.

These data come from ChEMBL document CHEMBL1221333, “Design, synthesis, and biological evaluation of conformationally constrained glycerol 3-phosphate acyltransferase inhibitors” (Bioorg Med Chem, 2010).
